The text below walks through data of patent publication US20030125311A1, “Compounds capable of binding with the cytoskeleton” (priority 2002, published 2003).

In general, pKd refers to the negative decadic logarithm of the Kd, by convention in mol/L.

pKd: −log10 of the molar value.

The target in one assay is MAP2-tubulin copolymers (Bos taurus, UniProt A0A3Q1NAK9). As to the kind of experiment: Competition for PREG [3H] binding to MAP2-tubulin copolymers (RCR). Further details: species or system calf. Conditions: MAP2-tubulin copolymers; PREG = 100. The method, then:
(§1) In trials of competition between pregnenolone and different steroids for the binding studied, 0.2 ml of cytosol is incubated with 100 nM of PREG [^3H] and a 1-, 10-, 100-, and 1,000-fold excess of non-radioactive steroid.
(§2) The relative competition index was determined as ratios of the concentrations of the competitor (in the […]) versus PREG causing a reduction of 50% of the specific binding of PREG [^3H]×100 (mean±standard error, n=3).
Purified calf brain tubulin (90 μg/ml), MAP2 (45 μg/ml) or tau protein (25 μg/ml) is incubated with 100 nM of PREG [^3H], with or without a 1,000-fold excess of non-radioactive PREG.

Assay [1] has as its target T1, fetal microtubules (Rattus norvegicus, UniProt P15146). Description: Competition for PREG [3H] binding to fetal microtubules (RCR). Particulars: PREG = 100. The procedure:
as §1
(§3) The microtubules are prepared starting from calf brain or adult or fetal rat brain according to an assembly/disassembly method, as a function of the temperature, in vitro (12).
as §2
(§4) The binding of PREG [^3H] to microtubules prepared by polymerization/depolymerization cycles was determined.

Another assay deals with fetal rat brain neurons. As to the kind of experiment: Immunocytochemistry of fetal rat brain neuron cultures. Type of assay: cell-based. Conditions: 1 μM for 2 days. The procedure: Primary cultures of E17 fetal neurons are performed according to El-Etr et al. (16). Briefly, this method consists of spreading the dissociated cells (200,000 cells/cm^2) on glass plates covered with poly-1-ornithine and cultured in a completely defined medium in 5% CO2 at 37° C. The culture conditions used permit a practically pure neuron population to be obtained.
24 h after seeding, 1 micromolar pregnenolone (final ethanol concentration 0.01%), or the solvent alone, is added and cultures are continued for 2 days. The cells are fixed in 4% paraformaldehyde, then frozen at −80° C. The cells are duly rehydrated by passages of 5 min in ethanol at concentrations of 100, 90 and 70%. After 2 washings in PBS, for 5 min, the cells are incubated in PBS containing 3% of BSA and 0.1% of Triton X100®, at ambient temperature for 1 h.
After 4 washings in PBS, the cells are incubated at 37° C. for 1 h, then at 4° C. for about 14 h, in the presence of either anti-α-tubulin monoclonal antibody diluted {fraction (1/2,000)}, or anti-MAP2 monoclonal antibody diluted {fraction (1/1,000)}, or anti-double-cortin antiserum diluted 1/300.
After 3 washings in PBS, the secondary antibody is added at ambient temperature, for 45 minutes. […]

Assay [2] addresses T1, fetal microtubules. As to the kind of experiment: Binding of PREG [3H] to purified fetal rat brain microtubules. The method, then: as §3, §4
Assay [3] deals with T2, microtubules reconstituted with purified tubulin and MAP2 (Bos taurus, UniProt A0A3Q1NAK9).
T2 construct: from tissue; host or cells: calf brain
T2 sequence (A0A3Q1NAK9 1-1867): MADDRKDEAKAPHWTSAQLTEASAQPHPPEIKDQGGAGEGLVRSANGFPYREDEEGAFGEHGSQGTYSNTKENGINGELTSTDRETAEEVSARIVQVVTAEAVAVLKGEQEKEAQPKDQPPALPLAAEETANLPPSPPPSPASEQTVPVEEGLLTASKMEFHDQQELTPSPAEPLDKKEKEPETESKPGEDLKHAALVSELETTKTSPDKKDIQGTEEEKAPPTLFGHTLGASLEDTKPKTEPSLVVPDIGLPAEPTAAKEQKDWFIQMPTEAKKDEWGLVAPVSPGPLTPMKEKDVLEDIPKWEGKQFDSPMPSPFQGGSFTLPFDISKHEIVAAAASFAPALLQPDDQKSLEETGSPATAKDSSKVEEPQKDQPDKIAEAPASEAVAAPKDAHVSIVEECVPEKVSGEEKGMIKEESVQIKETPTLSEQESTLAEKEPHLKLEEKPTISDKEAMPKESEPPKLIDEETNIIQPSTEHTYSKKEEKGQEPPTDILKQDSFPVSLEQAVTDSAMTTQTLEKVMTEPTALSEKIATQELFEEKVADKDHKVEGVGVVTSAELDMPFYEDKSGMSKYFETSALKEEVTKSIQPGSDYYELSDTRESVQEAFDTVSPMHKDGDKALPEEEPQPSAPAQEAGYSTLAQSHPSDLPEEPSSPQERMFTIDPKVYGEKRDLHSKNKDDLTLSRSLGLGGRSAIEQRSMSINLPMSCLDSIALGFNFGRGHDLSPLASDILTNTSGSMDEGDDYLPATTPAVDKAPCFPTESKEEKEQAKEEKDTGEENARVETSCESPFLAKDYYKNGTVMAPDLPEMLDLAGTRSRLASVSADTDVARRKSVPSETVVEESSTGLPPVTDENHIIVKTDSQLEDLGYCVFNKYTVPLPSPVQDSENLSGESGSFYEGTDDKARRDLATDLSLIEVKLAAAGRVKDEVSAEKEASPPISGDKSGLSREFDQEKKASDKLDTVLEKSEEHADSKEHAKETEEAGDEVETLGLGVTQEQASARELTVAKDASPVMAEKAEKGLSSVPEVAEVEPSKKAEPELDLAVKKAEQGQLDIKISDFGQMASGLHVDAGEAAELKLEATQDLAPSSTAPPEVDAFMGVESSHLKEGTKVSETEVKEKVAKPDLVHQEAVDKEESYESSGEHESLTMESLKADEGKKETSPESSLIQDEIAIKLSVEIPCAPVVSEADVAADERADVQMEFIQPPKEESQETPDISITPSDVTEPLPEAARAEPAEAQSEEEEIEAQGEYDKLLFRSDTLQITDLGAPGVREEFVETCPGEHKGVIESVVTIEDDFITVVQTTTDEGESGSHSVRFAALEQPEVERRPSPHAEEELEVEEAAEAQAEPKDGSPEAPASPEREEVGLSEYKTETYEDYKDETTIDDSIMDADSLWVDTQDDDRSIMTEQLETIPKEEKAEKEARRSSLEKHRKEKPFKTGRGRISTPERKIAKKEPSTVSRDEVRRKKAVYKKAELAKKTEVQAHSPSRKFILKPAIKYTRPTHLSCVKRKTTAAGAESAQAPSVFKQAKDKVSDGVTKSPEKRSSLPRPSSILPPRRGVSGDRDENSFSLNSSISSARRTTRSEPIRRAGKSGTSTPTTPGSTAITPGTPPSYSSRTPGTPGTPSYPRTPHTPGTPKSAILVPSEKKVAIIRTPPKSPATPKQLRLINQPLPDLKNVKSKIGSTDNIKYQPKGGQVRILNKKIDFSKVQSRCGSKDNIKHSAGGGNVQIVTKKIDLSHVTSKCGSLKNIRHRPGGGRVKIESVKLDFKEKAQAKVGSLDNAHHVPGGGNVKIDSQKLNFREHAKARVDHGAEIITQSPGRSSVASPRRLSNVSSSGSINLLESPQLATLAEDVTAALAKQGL
As to the kind of experiment: Kinetics of assembling of microtubules (turbidity at 345 nm). The assay is classed as biochemical, calf. Conditions: 500 nM steroid, 37° C., 15 min. The procedure:
This assembling is measured by monitoring the increases of turbidity with a UVICON® spectrophotometer (Kontron Instruments, Montigny-le-Bretonneux, France)
The microtubules are reconstituted in vitro with purified tubulin (1 mg/ml) and MAP2 (0.05 mg/ml) in buffer A.
The increase of absorbance is measured at 345 nm, at 37° C. and recorded every 30 sec. for 15 min.
The assembling of microtubules is measured either in the absence of steroids (-⋄-); or in the presence of 500 nM of steroid: PREG (- -), progesterone (-X-), estradiol (-V-); or in the presence, at the same time, of PREG and progesterone (-∘-) or of PREG and estradiol (-Δ-) each at a concentration of 500 nM.

T1 sequence (P15146 whole entry): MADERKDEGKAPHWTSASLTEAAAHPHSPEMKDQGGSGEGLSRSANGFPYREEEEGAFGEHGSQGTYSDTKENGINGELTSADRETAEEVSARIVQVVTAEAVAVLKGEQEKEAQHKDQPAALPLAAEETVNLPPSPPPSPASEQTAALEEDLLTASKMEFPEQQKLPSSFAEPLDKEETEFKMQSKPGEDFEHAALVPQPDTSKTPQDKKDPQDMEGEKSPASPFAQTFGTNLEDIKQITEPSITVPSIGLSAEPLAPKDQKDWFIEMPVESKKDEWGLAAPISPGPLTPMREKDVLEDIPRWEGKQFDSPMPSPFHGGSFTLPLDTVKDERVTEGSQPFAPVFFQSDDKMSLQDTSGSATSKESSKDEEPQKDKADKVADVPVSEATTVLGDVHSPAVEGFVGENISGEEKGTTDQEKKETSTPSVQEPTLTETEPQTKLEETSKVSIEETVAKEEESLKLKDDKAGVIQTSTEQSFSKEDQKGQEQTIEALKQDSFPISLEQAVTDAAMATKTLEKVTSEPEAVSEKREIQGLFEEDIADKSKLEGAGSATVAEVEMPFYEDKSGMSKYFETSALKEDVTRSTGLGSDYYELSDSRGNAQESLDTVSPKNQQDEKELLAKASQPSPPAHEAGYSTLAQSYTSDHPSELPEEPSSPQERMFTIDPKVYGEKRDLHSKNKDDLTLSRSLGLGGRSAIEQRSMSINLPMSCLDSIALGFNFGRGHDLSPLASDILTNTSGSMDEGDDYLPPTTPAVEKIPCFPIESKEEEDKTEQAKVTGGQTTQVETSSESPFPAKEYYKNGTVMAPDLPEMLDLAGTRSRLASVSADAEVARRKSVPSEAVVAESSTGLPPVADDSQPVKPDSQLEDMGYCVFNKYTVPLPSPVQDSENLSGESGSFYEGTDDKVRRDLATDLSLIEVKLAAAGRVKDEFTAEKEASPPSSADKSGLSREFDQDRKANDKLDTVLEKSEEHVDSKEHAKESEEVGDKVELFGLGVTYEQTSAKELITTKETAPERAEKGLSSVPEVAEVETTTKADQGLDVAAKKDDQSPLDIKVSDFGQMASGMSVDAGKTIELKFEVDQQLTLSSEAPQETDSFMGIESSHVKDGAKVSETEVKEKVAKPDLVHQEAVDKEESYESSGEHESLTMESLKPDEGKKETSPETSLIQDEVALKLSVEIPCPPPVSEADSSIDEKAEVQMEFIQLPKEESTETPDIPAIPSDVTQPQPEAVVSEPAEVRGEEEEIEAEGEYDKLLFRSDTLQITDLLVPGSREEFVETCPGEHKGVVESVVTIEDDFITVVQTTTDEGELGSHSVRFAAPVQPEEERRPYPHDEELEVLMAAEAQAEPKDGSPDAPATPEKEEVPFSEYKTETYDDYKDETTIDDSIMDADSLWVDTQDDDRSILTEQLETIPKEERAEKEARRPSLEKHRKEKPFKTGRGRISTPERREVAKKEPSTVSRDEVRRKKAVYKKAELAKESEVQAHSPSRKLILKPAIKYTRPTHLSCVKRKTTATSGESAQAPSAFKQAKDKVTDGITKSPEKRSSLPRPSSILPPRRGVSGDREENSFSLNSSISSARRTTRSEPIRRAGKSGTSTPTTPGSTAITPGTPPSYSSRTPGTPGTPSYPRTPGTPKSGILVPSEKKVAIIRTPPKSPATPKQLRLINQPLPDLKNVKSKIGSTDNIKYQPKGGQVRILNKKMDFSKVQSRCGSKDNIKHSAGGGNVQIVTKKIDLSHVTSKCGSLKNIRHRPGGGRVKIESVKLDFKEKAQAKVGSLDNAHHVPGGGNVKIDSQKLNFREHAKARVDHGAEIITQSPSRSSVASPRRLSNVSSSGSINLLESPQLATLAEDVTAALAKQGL
MAP2-tubulin copolymers, sequence (A0A3Q1NAK9 1-1867): as the sequence (A0A3Q1NAK9 1-1867) above

For the compound `CC(=O)C1CCC2C3CC=C4CC(O)CCC4(C)C3CCC12C` (stereo not shown) [Pregnenolone], the RCR on MAP2-tubulin copolymers came out at 100. The RCR on fetal microtubules [1] is recorded as 100. Moreover, in the assay with fetal rat brain neurons, the “immunolabeling of MAP2” value was “increases the immunolabeling of MAP2 of the cell bodies and induces its extension to close nerve cells”; the “staining with anti-α tubulin or anti-double-cortin antibodies” value is “does not show any difference”. Further, at fetal microtubules [2], the Bmax is on record as 3.7 pmol/mg of protein and the negative-log Kd (pKd) was 7.37. In assay [3], the “effect on assembling of microtubules (absorbance at 345 nm)” value was “induces a strong increase of both the speed and the extent of the assembling of the tubulin”.
